Reference: PubChem BioAssay (NCI)
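1) Cells in 96-well plates. 2) Compound, 48 h, 5 concentrations. 3) Linear interpolation between surrounding doses. 4) Unreached endpoint = highest concentration. GI50 is the concentration that inhibits growth by half. Definition used: TGI = concentration required for complete inhibition of growth.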

Test system: 786-0 renal
Assay: growth of human tumour cells (NCI), 48 h

Q: Which GI50 does the source give for `COc1nc(=O)n(C2C=CC(=O)O2)cc1F` (stereo unspecified) here?
A: 12.1 µM

Q: What about the TGI of the same compound?
A: 25.1 µM

Q: `CNCCCNc1ccnc2cc(Cl)ccc12` was tested. Which GI50 did it give?
A: 32.9 µM

Q: And the TGI?
A: > 100 µM

Q: Which GI50 does the source give for `O=c1[nH]c(O)c(C=Nc2ccc(-c3nc4ccccc4o3)cc2)c(=O)[nH]1` here?
A: 32.9 µM

Q: And the TGI?
A: > 100 µM

Q: Which GI50 does the source give for `COc1ccc(-c2cc(=O)oc3c4c(ccc23)OCN(Cc2ccc(F)cc2)C4)cc1` here?
A: 15.1 µM

Q: What about the TGI of the same compound?
A: 32.8 µM

Test system: A498 renal
Assay: growth of human tumour cells (NCI), 48 h

Q: For `COc1nc(=O)n(C2C=CC(=O)O2)cc1F` (stereo unspecified), which GI50 is on record?
A: 16.2 µM

Q: What about the TGI of the same compound?
A: 38.1 µM

Q: Which GI50 does the source give for `CNCCCNc1ccnc2cc(Cl)ccc12` here?
A: 12.4 µM

Q: What about the TGI of the same compound?
A: 40.3 µM

Q: Which GI50 does the source give for `COc1ccc(-c2cc(=O)oc3c4c(ccc23)OCN(Cc2ccc(F)cc2)C4)cc1` here?
A: 1.23 µM

Q: What about the TGI of the same compound?
A: 10.3 µM

Test system: A549 NSCLC
Assay: growth of human tumour cells (NCI), 48 h

Q: `COc1nc(=O)n(C2C=CC(=O)O2)cc1F` (stereo unspecified) was tested. Which GI50 did it give?
A: 25.9 µM

Q: And the TGI?
A: 87.3 µM

Q: What does the source list for `O=c1[nH]c(O)c(C=Nc2ccc(-c3nc4ccccc4o3)cc2)c(=O)[nH]1`?
A: GI50: 74.9 µM; TGI: > 100 µM

Q: Which results are given for `COc1ccc(-c2cc(=O)oc3c4c(ccc23)OCN(Cc2ccc(F)cc2)C4)cc1`?
A: GI50: 25.6 µM; TGI: > 100 µM

Test system: ACHN renal
Assay: growth of human tumour cells (NCI), 48 h

Q: `COc1nc(=O)n(C2C=CC(=O)O2)cc1F` (stereo unspecified) was tested. Which GI50 did it give?
A: 2.11 µM

Q: What about the TGI of the same compound?
A: 5.45 µM

Q: `CNCCCNc1ccnc2cc(Cl)ccc12` was tested. Which GI50 did it give?
A: 19 µM

Q: And the TGI?
A: 61.3 µM

Q: How did the GI50 turn out when `O=c1[nH]c(O)c(C=Nc2ccc(-c3nc4ccccc4o3)cc2)c(=O)[nH]1` was run?
A: > 100 µM

Q: What about the TGI of the same compound?
A: > 100 µM

Q: How did the GI50 turn out when `COc1ccc(-c2cc(=O)oc3c4c(ccc23)OCN(Cc2ccc(F)cc2)C4)cc1` was run?
A: 19.4 µM

Q: And the TGI?
A: 65 µM

Test system: BT-549 breast
Assay: growth of human tumour cells (NCI), 48 h

Q: Which results are given for `COc1nc(=O)n(C2C=CC(=O)O2)cc1F` (stereo unspecified)?
A: GI50: 8.29 µM; TGI: 24.1 µM

Q: Which results are given for `CNCCCNc1ccnc2cc(Cl)ccc12`?
A: GI50: 28.3 µM; TGI: > 100 µM

Q: For `O=c1[nH]c(O)c(C=Nc2ccc(-c3nc4ccccc4o3)cc2)c(=O)[nH]1`, which GI50 is on record?
A: > 100 µM

Q: And the TGI?
A: > 100 µM

Q: For `COc1ccc(-c2cc(=O)oc3c4c(ccc23)OCN(Cc2ccc(F)cc2)C4)cc1`, which GI50 is on record?
A: 14.6 µM

Q: What about the TGI of the same compound?
A: 31.3 µM

Test system: CAKI-1 renal
Assay: growth of human tumour cells (NCI), 48 h

Q: Which GI50 does the source give for `COc1nc(=O)n(C2C=CC(=O)O2)cc1F` (stereo unspecified) here?
A: 2.67 µM

Q: What about the TGI of the same compound?
A: 8.7 µM

Q: How did the GI50 turn out when `CNCCCNc1ccnc2cc(Cl)ccc12` was run?
A: 17.3 µM

Q: And the TGI?
A: 48.6 µM

Q: Which results are given for `O=c1[nH]c(O)c(C=Nc2ccc(-c3nc4ccccc4o3)cc2)c(=O)[nH]1`?
A: GI50: 33.1 µM; TGI: > 100 µM

Q: Which GI50 does the source give for `COc1ccc(-c2cc(=O)oc3c4c(ccc23)OCN(Cc2ccc(F)cc2)C4)cc1` here?
A: 14.7 µM

Q: What about the TGI of the same compound?
A: 44.3 µM

Test system: CCRF-CEM leukemia
Assay: growth of human tumour cells (NCI), 48 h

Q: What does the source list for `COc1ccc(-c2cc(=O)oc3c4c(ccc23)OCN(Cc2ccc(F)cc2)C4)cc1`?
A: GI50: 25.8 µM; TGI: 82 µM

Test system: COLO 205 colon
Assay: growth of human tumour cells (NCI), 48 h

Q: For `COc1nc(=O)n(C2C=CC(=O)O2)cc1F` (stereo unspecified), which GI50 is on record?
A: 1.71 µM

Q: What about the TGI of the same compound?
A: 3.62 µM

Q: `CNCCCNc1ccnc2cc(Cl)ccc12` was tested. Which GI50 did it give?
A: 12.6 µM

Q: And the TGI?
A: 27.4 µM

Q: Which GI50 does the source give for `O=c1[nH]c(O)c(C=Nc2ccc(-c3nc4ccccc4o3)cc2)c(=O)[nH]1` here?
A: 23.2 µM

Q: What about the TGI of the same compound?
A: > 100 µM

Q: For `COc1ccc(-c2cc(=O)oc3c4c(ccc23)OCN(Cc2ccc(F)cc2)C4)cc1`, which GI50 is on record?
A: 18.7 µM

Q: And the TGI?
A: 36.1 µM

Test system: DU-145 prostate
Assay: growth of human tumour cells (NCI), 48 h

Q: `COc1nc(=O)n(C2C=CC(=O)O2)cc1F` (stereo unspecified) was tested. Which GI50 did it give?
A: 11.1 µM

Q: And the TGI?
A: 28.2 µM

Q: Which GI50 does the source give for `CNCCCNc1ccnc2cc(Cl)ccc12` here?
A: 17.3 µM

Q: What about the TGI of the same compound?
A: 38.5 µM

Q: Which GI50 does the source give for `O=c1[nH]c(O)c(C=Nc2ccc(-c3nc4ccccc4o3)cc2)c(=O)[nH]1` here?
A: > 100 µM

Q: What about the TGI of the same compound?
A: > 100 µM

Q: Which GI50 does the source give for `COc1ccc(-c2cc(=O)oc3c4c(ccc23)OCN(Cc2ccc(F)cc2)C4)cc1` here?
A: 24.3 µM

Q: What about the TGI of the same compound?
A: 59.9 µM

Test system: EKVX NSCLC
Assay: growth of human tumour cells (NCI), 48 h

Q: `COc1nc(=O)n(C2C=CC(=O)O2)cc1F` (stereo unspecified) was tested. Which GI50 did it give?
A: 11.3 µM

Q: And the TGI?
A: > 100 µM

Q: Which results are given for `O=c1[nH]c(O)c(C=Nc2ccc(-c3nc4ccccc4o3)cc2)c(=O)[nH]1`?
A: GI50: > 100 µM; TGI: > 100 µM

Test system: HCC-2998 colon
Assay: growth of human tumour cells (NCI), 48 h

Q: For `COc1nc(=O)n(C2C=CC(=O)O2)cc1F` (stereo unspecified), which GI50 is on record?
A: 12.9 µM

Q: And the TGI?
A: 25.5 µM

Q: What does the source list for `CNCCCNc1ccnc2cc(Cl)ccc12`?
A: GI50: 28.7 µM; TGI: > 100 µM

Q: Which results are given for `COc1ccc(-c2cc(=O)oc3c4c(ccc23)OCN(Cc2ccc(F)cc2)C4)cc1`?
A: GI50: 19.2 µM; TGI: 37 µM

Test system: HCT-116 colon
Assay: growth of human tumour cells (NCI), 48 h

Q: What does the source list for `COc1nc(=O)n(C2C=CC(=O)O2)cc1F` (stereo unspecified)?
A: GI50: 2.05 µM; TGI: 4.81 µM

Q: How did the GI50 turn out when `CNCCCNc1ccnc2cc(Cl)ccc12` was run?
A: 11.2 µM

Q: And the TGI?
A: 41.4 µM

Q: For `O=c1[nH]c(O)c(C=Nc2ccc(-c3nc4ccccc4o3)cc2)c(=O)[nH]1`, which GI50 is on record?
A: 93.6 µM

Q: What about the TGI of the same compound?
A: > 100 µM

Q: For `COc1ccc(-c2cc(=O)oc3c4c(ccc23)OCN(Cc2ccc(F)cc2)C4)cc1`, which GI50 is on record?
A: 13.6 µM

Q: What about the TGI of the same compound?
A: 27.7 µM

Test system: HCT-15 colon
Assay: growth of human tumour cells (NCI), 48 h

Q: What does the source list for `COc1nc(=O)n(C2C=CC(=O)O2)cc1F` (stereo unspecified)?
A: GI50: 2.59 µM; TGI: 12 µM

Q: For `CNCCCNc1ccnc2cc(Cl)ccc12`, which GI50 is on record?
A: 23.3 µM

Q: What about the TGI of the same compound?
A: 94.4 µM

Q: How did the GI50 turn out when `O=c1[nH]c(O)c(C=Nc2ccc(-c3nc4ccccc4o3)cc2)c(=O)[nH]1` was run?
A: 32.4 µM

Q: What about the TGI of the same compound?
A: > 100 µM

Q: With `COc1ccc(-c2cc(=O)oc3c4c(ccc23)OCN(Cc2ccc(F)cc2)C4)cc1` as the compound, how does the GI50 read?
A: 15.4 µM

Q: What about the TGI of the same compound?
A: 31.8 µM

Test system: HL-60(TB) leukemia
Assay: growth of human tumour cells (NCI), 48 h

Q: For `CNCCCNc1ccnc2cc(Cl)ccc12`, which GI50 is on record?
A: 22.1 µM

Q: What about the TGI of the same compound?
A: 65 µM

Q: How did the GI50 turn out when `O=c1[nH]c(O)c(C=Nc2ccc(-c3nc4ccccc4o3)cc2)c(=O)[nH]1` was run?
A: 81.9 µM

Q: And the TGI?
A: > 100 µM

Q: With `COc1ccc(-c2cc(=O)oc3c4c(ccc23)OCN(Cc2ccc(F)cc2)C4)cc1` as the compound, how does the GI50 read?
A: 23.2 µM

Q: What about the TGI of the same compound?
A: 57.4 µM

Test system: HOP-62 NSCLC
Assay: growth of human tumour cells (NCI), 48 h

Q: With `COc1nc(=O)n(C2C=CC(=O)O2)cc1F` (stereo unspecified) as the compound, how does the GI50 read?
A: 29.7 µM

Q: What about the TGI of the same compound?
A: 81.2 µM

Q: With `CNCCCNc1ccnc2cc(Cl)ccc12` as the compound, how does the GI50 read?
A: 22.4 µM

Q: And the TGI?
A: > 100 µM

Q: For `O=c1[nH]c(O)c(C=Nc2ccc(-c3nc4ccccc4o3)cc2)c(=O)[nH]1`, which GI50 is on record?
A: > 100 µM

Q: What about the TGI of the same compound?
A: > 100 µM

Q: Which results are given for `COc1ccc(-c2cc(=O)oc3c4c(ccc23)OCN(Cc2ccc(F)cc2)C4)cc1`?
A: GI50: 14.4 µM; TGI: 30.8 µM

Test system: HOP-92 NSCLC
Assay: growth of human tumour cells (NCI), 48 h

Q: Which results are given for `COc1nc(=O)n(C2C=CC(=O)O2)cc1F` (stereo unspecified)?
A: GI50: 1.85 µM; TGI: 11.7 µM

Q: With `CNCCCNc1ccnc2cc(Cl)ccc12` as the compound, how does the GI50 read?
A: 9.51 µM

Q: And the TGI?
A: 39.1 µM
